From patent US20100298141A1, “SUBSTITUTED PYRIDINE N-OXIDE HERBICIDES” (E. I. DU PONT DE NEMOURS AND COMPANY, priority 2007, published 2010)

How the values were obtained:
barnyardgrass [1] = assay: Test A pre-/postemergence greenhouse test; assay type: in vivo, Echinochloa crus-galli; conditions: for Barnyardgrass plant response rating: 0 to 100 scale
Method in brief: (§1)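 Two application timings were run side by side in the greenhouse. Before emergence, compound went onto the soil surface of loam–sand pots as a directed spray; after emergence, plants at 2–10 cm and the one- to two-leaf stage were treated. Visual injury versus controls was rated at approximately day ten.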

crabgrass [2] = assay: Test A pre-/postemergence greenhouse test; assay type: in vivo, Digitaria sanguinalis; conditions: for Crabgrass, Large plant response rating: 0 to 100 scale
Method in brief: as §1

giant foxtail = assay: Test A pre-/postemergence greenhouse test; assay type: in vivo, Setaria faberi; conditions: for Foxtail, Giant plant response rating: 0 to 100 scale
Method in brief: as §1

morningglory = assay: Test A pre-/postemergence greenhouse test; assay type: in vivo, Ipomoea spp.; conditions: for Morningglory plant response rating: 0 to 100 scale
Method in brief: as §1

Italian ryegrass = assay: Test C pre-/postemergence test; assay type: in vivo, Lolium multiflorum; conditions: Preemergence
Method in brief: (§2)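 Test chemicals were formulated with surfactant in a non-phytotoxic solvent and sprayed both on freshly planted seeds (preemergence) and on 1- to 4-leaf plants of 2–18 cm (postemergence). Flooded-paddy pots received compound directly into 3 cm of standing water, maintained for the test.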

bermudagrass = assay: Test C pre-/postemergence test; assay type: in vivo, Cynodon dactylon
Method in brief: as §2

Surinam grass = assay: Test C pre-/postemergence test; assay type: in vivo, Brachiaria decumbens; conditions: Preemergence
Method in brief: as §2

cocklebur = assay: Test C pre-/postemergence test; assay type: in vivo, Xanthium strumarium
Method in brief: as §2

crabgrass [3] = assay: Test C pre-/postemergence test; assay type: in vivo, Digitaria sanguinalis; conditions: Preemergence
Method in brief: as §2

Goosegrass = assay: Test C pre-/postemergence test; assay type: in vivo, Eleusin indica; conditions: Preemergence
Method in brief: as §2

kochia = assay: Test C pre-/postemergence test; assay type: in vivo, Kochia scoparia; conditions: Preemergence
Method in brief: as §2

lambsquarters = assay: Test C pre-/postemergence test; assay type: in vivo, Chenopodium album; conditions: 62 g ai/ha, Preemergence; scale 0 to 100
Method in brief: as §2

pigweed = assay: Test C pre-/postemergence test; assay type: in vivo, Amaranthus retroflexus; conditions: Preemergence
Method in brief: as §2

soybean = assay: Test C pre-/postemergence test; assay type: in vivo, Glycine max; conditions: 62 g ai/ha, Preemergence; scale 0 to 100
Method in brief: as §2

[4] = system: common (oilseed) sunflower; assay: Test C pre-/postemergence test; assay type: in vivo, Helianthus annuus; conditions: Preemergence
Method in brief: as §2

umbrella sedge = assay: Test C flooded paddy test; assay type: in vivo, Cyperus difformis; conditions: Flood
Method in brief: (§3)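 Compound was added to standing water 3 cm above soil, flood maintained, and plants held in a greenhouse before visual scoring against controls at 13 to 15 days.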

barnyardgrass [5] = assay: Test C flooded paddy test; assay type: in vivo, Echinochloa crus-galli; conditions: Flood
Method in brief: as §3

[6] = Postemergence, 125 g ai/ha, 0 is no effect, 100 is complete control
[7] = Postemergence, 500 g ai/ha, 0 is no effect, 100 is complete control
[8] = Preemergence, 125 g ai/ha, 0 no effect, 100 complete control
[9] = Preemergence, 500 g ai/ha, 0 to 100 scale where 0 is no effect and 100 is complete control
[10] = 31 g ai/ha, scale 0 to 100 (0 no effect, 100 complete control)
[11] = Preemergence, 31 g ai/ha, scale 0 to 100 (0 no effect, 100 complete control)
[12] = preemergence, 125 g ai/ha, scale 0 (no effect) to 100 (complete control)
[13] = 62 g ai/ha, scale 0 to 100, 0 no effect, 100 complete control, 13 to 15 days
[14] = 125 g ai/ha, scale 0 to 100, 0 no effect, 100 complete control, 13 to 15 days

SMILES: Cn1nc(C(F)(F)F)c(CS(=O)(=O)c2cccc[n+]2[O-])c1OCC(F)(F)F [Compound 29]
- Barnyardgrass plant response rating (barnyardgrass [1]; [6]): 80
- Barnyardgrass plant response rating (barnyardgrass [1]; [7]): 90
- Barnyardgrass plant response rating (barnyardgrass [1]; [8]): 100
- Plant response rating, Barnyardgrass (barnyardgrass [1]; [9]): 100
- Crabgrass, Large plant response rating (crabgrass [2]; [6]): 80
- Crabgrass, Large plant response rating (crabgrass [2]; [7]): 90
- Crabgrass, Large plant response rating (crabgrass [2]; [8]): 90
- Plant response rating, Crabgrass, Large (crabgrass [2]; [9]): 100
- Foxtail, Giant plant response rating (giant foxtail; [6]): 80
- Foxtail, Giant plant response rating (giant foxtail; [7]): 90
- Foxtail, Giant plant response rating (giant foxtail; [8]): 100
- Plant response rating, Foxtail, Giant (giant foxtail; [9]): 100
- Morningglory plant response rating (morningglory; [6]): 30
- Morningglory plant response rating (morningglory; [7]): 80
- Morningglory plant response rating (morningglory; [8]): 70
- Plant response rating, Morningglory (morningglory; [9]): 80
- Ryegrass, Italian plant response rating (Italian ryegrass; 62 g ai/ha, scale 0 to 100): 85
- Plant response rating, Ryegrass, Italian (Italian ryegrass; [10]): 60
- Bermudagrass plant response rating (bermudagrass; 62 g ai/ha, Preemergence, scale 0 to 100 (0 no effect, 100 complete control)): 100
- Plant response rating, Bermudagrass (bermudagrass; [11]): 100
- Plant response rating (0 to 100), Bermudagrass (bermudagrass; Preemergence, 250 g ai/ha): 100
- Bermudagrass plant response rating (bermudagrass; [12]): 100
- Surinam Grass plant response rating (Surinam grass; 62 g ai/ha, scale 0 to 100): 75
- Plant response rating, Surinam Grass (Surinam grass; [10]): 75
- Cocklebur plant response rating (cocklebur; 62 g ai/ha, Preemergence, scale 0 to 100): 0
- Plant response rating, Cocklebur (cocklebur; [11]): 0
- Plant response rating (0 to 100), Cocklebur (cocklebur; Preemergence, 250 g ai/ha): 10
- Cocklebur plant response rating (cocklebur; [12]): 0
- Crabgrass, Large plant response rating (crabgrass [3]; 62 g ai/ha, scale 0 to 100): 100
- Plant response rating, Crabgrass, Large (crabgrass [3]; [10]): 100
- Plant response rating (0 to 100), Crabgrass, Large (crabgrass [3]; 250 g ai/ha): 100
- Goosegrass plant response rating (Goosegrass; 62 g ai/ha, scale 0 to 100): 100
- Plant response rating, Goosegrass (Goosegrass; [10]): 100
- Plant response rating (0 to 100), Goosegrass (Goosegrass; 250 g ai/ha): 100
- Kochia plant response rating (kochia; 62 g ai/ha, scale 0 to 100): 100
- Plant response rating, Kochia (kochia; [10]): 100
- Lambsquarters plant response rating (lambsquarters): 0
- Pigweed plant response rating (pigweed; 62 g ai/ha, scale 0 to 100): 100
- Plant response rating, Pigweed (pigweed; [10]): 100
- Soybean plant response rating (soybean): 70
- Sunflower plant response rating ([4]; 62 g ai/ha, scale 0 to 100): 60
- Plant response rating, Sunflower [4, 10]: 0
- Plant response rating, Sedge, Umbrella (umbrella sedge; [10]): 80
- Plant response rating, Sedge, Umbrella (umbrella sedge; [13]): 90
- Plant response rating, Sedge, Umbrella (umbrella sedge; [14]): 90
- Plant response rating, Sedge, Umbrella (umbrella sedge; 250 g ai/ha, scale 0 to 100, 0 no effect, 100 complete control, 13 to 15 days): 95
- Plant response rating, Barnyardgrass (barnyardgrass [5]; [10]): 0
- Plant response rating, Barnyardgrass (barnyardgrass [5]; [13]): 0
- Plant response rating, Barnyardgrass (barnyardgrass [5]; [14]): 40
- Plant response rating, Barnyardgrass (barnyardgrass [5]; 250 g ai/ha, scale 0 to 100 (0 no effect, 100 complete control)): 80
